The target of this assay is thrombin (Homo sapiens, UniProt P00734). Kind of assay: Fibrinogen clotting assay catalyzed by thrombin. The class given is biochemical. As to conditions: for IC50: concentration needed to double the clotting time. How it is done: Curves represent OD420 time course after the addition of 0.6 nM thrombin in the presence of (♦) 0 nM; (◯) 0.5 nM; (□) 1 nM; (Δ) 1.5 nM; (⋄) 2.5 nM; (●) 3.75 nM; (▪) 6.25 nM; and (▴) […] of the inhibitor with linker (GS)n and n=2 (SEQ. ID. NO. 50) (a); n=4 (SEQ. ID. NO. 51) (b); n=6 (SEQ. ID. NO. 52) (c); n=8 (SEQ. ID. NO. 53) (d); n=10 (SEQ. ID. NO. 54) (e); and in the presence of (♦) 0 nM; (◯) 1 nM; (□) 2 nM; (Δ) 4 nM; (⋄) 6 nM; (●) 10 nM; (▪) 15 nM; and (▴) 25 nM of the inhibitor with linker (GS)n and n=12 (SEQ. ID. NO. 55) (f); n=14 (SEQ. ID. NO. 56) (g), at 37° C. The onset clotting time was determined as an intersection of the baseline and the extrapolated linear portion of the OD change curve. […] Curves (i) represent OD420 time course in the presence of (A) 0 nM; (◯) 1 nM; (□) 2 nM; (Δ) 4 nM; (⋄) 6 nM; and (●) 15 nM of the inhibitor with linker […] (SEQ. ID. NO. 103), at 37° C. […] represent OD420 time course in the presence of (◯) 0 nM; (□) 2 nM; (Δ) 4 nM; (⋄) 6 nM; (●) 8 nM; (▪) 10 nM; (▴) 12 nM; and (♦) 15 nM; of the inhibitor with linker […] (SEQ. ID. NO. 58) at 25° C. Curves (k) represent OD420 time course in the presence of (◯) 0 nM; (□) 0.5 nM; (Δ) 1 nM; (⋄) 2 nM; (●) 3 nM; (▪) 4 nM; (▴) 5 nM; and (♦) 6 nM; of the inhibitor with linker […] (SEQ. ID. NO. 105) at 37° C. Curves (I) represent OD420 time course in the presence of (◯) 0 nM; (□) 0.25 nM; (Δ) 0.5 nM; (⋄) 1 nM; (●) 1.5 nM; (▪) 2 nM; and (▴) 2.5 nM; of the inhibitor with linker […] (SEQ. ID. NO. 104) at 37° C. Curves (m) represent OD420 time course in the presence of (◯) 0 nM; (□) 2 nM; (Δ) 4 nM; (⋄) 6 nM; (●) 8 nM; (▴) 10 nM; and (A) 12 nM; of the inhibitor with linker […] (SEQ. ID. NO. 106) at 37° C. Curves (n) represent OD420 time course in the presence of (◯) 0 nM; (□) 1 nM; (Δ) 2 nM; (⋄) 3 nM; (●) 4 nM; (▪) 5 nM; (▴) 6 nM; and (♦) 7 nM; of the inhibitor with linker […] (SEQ. ID. NO. 107) at 37° C. Curves (o) represent OD420 time course in the presence of (◯) 0 nM; (□) 4 nM; and (Δ) 8 nM; of the inhibitor with linker GQSHNR (SEQ. ID. NO. 108) at 37° C.
Other experimental conditions were as used for the assays described in FIG. 2.
Clotting assays were carried out by use of the protocols described previously (DiMaio and others, 1990, 21698-21703; Witting and others, 1992, 737-743). The assay employs bovine plasma fibrinogen dissolved at 0.1% in 50 mM Tris-Cl, 100 mM NaCl, 0.1% PEG-8000 at pH 7.6 (i.e. the clotting buffer). Each assay mixture contained a certain concentration of the peptide, and the reaction was started by the addition of human thrombin to a final concentration of 0.6-1.2 nM. Optical absorbance increase at 420 nm caused by fibrin clot formation was measured at 25° C. or 37° C. using the Spectramax plate reader. The onset clotting time was determined as an intersection of the baseline and the extrapolated linear portion of the OD change curve. The concentration of a peptide needed to double the clotting time was defined as IC50 (DiMaio and others, 1990, 21698-21703). Kinetic amidolytic curves were obtained in clotting buffer at 25° C. using eight inhibitor concentrations and three to five concentrations of the chromogenic substrate S-2238 (Chromogenix) (DiMaio and others, 1990, 21698-21703). Inhibition constants were extracted from Lineweaver-Burk equation by using weighted linear regression. Errors in Ki determination were estimated by using Monte-Carlo sampling with 1-3% variance of the experimental points.

Structures are written as SMILES.

This note sets out measurements from patent US8063018B2, “Bivalent thrombin binding molecules comprising linkers” (National Research Council of Canada, priority 2004, dated 2011).

The IC50 is the concentration that inhibits the measured activity by half. A high value points to a need for much substance. `CC[C@H](C)[C@H](NC(=O)[C@H](CCC(N)=O)NC(=O)[C@@H]1CCCN1C(=O)[C@H](CCCNC(=N)N)NC(=O)[C@@H]1CCCN1C(=O)[C@H](C)NC(=O)[C@H](Cc1c[nH]cn1)NC(=O)[C@H](CO)NC(=O)CNC(=O)[C@H]1CCCCN1C(=O)[C@H](CCCNC(=N)N)NS(=O)(=O)c1ccc(C(C)(C)C)cc1)C(=O)N[C@@H](Cc1c[nH]cn1)C(=O)N[C@@H](CC(N)=O)C(=O)N[C@@H](CC(=O)O)C(=O)NCC(=O)N[C@@H](CC(=O)O)C(=O)N[C@@H](Cc1ccccc1)C(=O)N[C@@H](CCC(=O)O)C(=O)N[C@@H](CCC(=O)O)C(=O)N[C@H](C(=O)N1CCC[C@H]1C(=O)N[C@@H](CCC(=O)O)C(=O)N[C@@H](CCC(=O)O)C(=O)N[C@@H](Cc1ccc(O)cc1)C(=O)N[C@@H](CC(C)C)C(=O)N[C@@H](CCC(N)=O)C(=O)O)[C@@H](C)CC` [P3210] gave an IC50 (IC50, nM (37° C.), 37° C.) of 0.6 nM. Regarding `CC[C@H](C)[C@H](NC(=O)[C@H](CCC(=O)O)NC(=O)[C@H](CCC(=O)O)NC(=O)[C@H](Cc1ccccc1)NC(=O)[C@H](CC(=O)O)NC(=O)CNC(=O)[C@@H](NC(=O)[C@H](CC(=O)O)NC(=O)CNC(=O)[C@H](C)NC(=O)[C@H](CCC(N)=O)NC(=O)[C@H](CCCCN)NC(=O)[C@H](C)NC(=O)CNC(=O)CNC(=O)[C@H](CC(C)C)NC(=O)[C@H](Cc1c[nH]cn1)NC(=O)[C@H](Cc1c[nH]cn1)NC(=O)CNC(=O)[C@H]1CCCCN1C(=O)[C@H](CCCNC(=N)N)NS(=O)(=O)c1ccc(C(C)(C)C)cc1)C(C)C)C(=O)N1CCC[C@H]1C(=O)N[C@@H](CCC(=O)O)C(=O)N[C@@H](CCC(=O)O)C(=O)N[C@@H](Cc1ccc(O)cc1)C(=O)N[C@@H](CC(C)C)C(=O)N[C@@H](CCC(N)=O)C(=O)O` [P3234], inhibition (IC50, nM (37° C.), 37° C.) was half-maximal at 3.9 ± 0.8 nM (IC50). Against the preceding compound, the IC50 is about 6.5-fold higher. `CC[C@H](C)[C@H](NC(=O)[C@H](CCC(=O)O)NC(=O)[C@H](CCC(=O)O)NC(=O)[C@H](Cc1ccccc1)NC(=O)[C@H](CC(=O)O)NC(=O)CNC(=O)[C@H](CCCNC(=N)N)NC(=O)[C@H](CC(=O)O)NC(=O)[C@H](C)NC(=O)[C@H](CCCNC(=N)N)NC(=O)[C@H](CO)NC(=O)[C@H](CCC(=O)O)NC(=O)[C@H](CCSC)NC(=O)[C@H](Cc1ccc(O)cc1)NC(=O)CNC(=O)[C@H]1CCCCN1C(=O)[C@H](CCCNC(=N)N)NS(=O)(=O)c1ccc(C(C)(C)C)cc1)C(=O)N1CCC[C@H]1C(=O)N[C@@H](CCC(=O)O)C(=O)N[C@@H](CCC(=O)O)C(=O)N[C@@H](Cc1ccc(O)cc1)C(=O)N[C@@H](CC(C)C)C(=O)N[C@@H](CCC(N)=O)C(=O)O` [P3236] returned an IC50 (IC50, nM (37° C.), 37° C.) of 1 ± 0.5 nM. `CC[C@H](C)[C@H](NC(=O)[C@H](CCC(=O)O)NC(=O)[C@H](CCC(=O)O)NC(=O)[C@H](Cc1ccccc1)NC(=O)[C@H](CC(=O)O)NC(=O)CNC(=O)[C@H](CCCNC(=N)N)NC(=O)[C@H](CC(N)=O)NC(=O)[C@H](Cc1c[nH]cn1)NC(=O)[C@H](CO)NC(=O)[C@H](CCC(N)=O)NC(=O)CNC(=O)[C@H]1CCCCN1C(=O)[C@H](CCCNC(=N)N)NS(=O)(=O)c1ccc(C(C)(C)C)cc1)C(=O)N1CCC[C@H]1C(=O)N[C@@H](CCC(=O)O)C(=O)N[C@@H](CCC(=O)O)C(=O)N[C@@H](Cc1ccc(O)cc1)C(=O)N[C@@H](CC(C)C)C(=O)N[C@@H](CCC(N)=O)C(=O)O` [P3238] showed an IC50 (IC50, nM (37° C.), 37° C.) of 2 ± 1 nM.

Consider `CC[C@H](C)[C@H](NC(=O)[C@@H](NC(=O)[C@H](CC(C)C)NC(=O)[C@H](CO)NC(=O)[C@H](CCCCN)NC(=O)[C@H](CCCNC(=N)N)NC(=O)CNC(=O)[C@H]1CCCCN1C(=O)[C@H](CCCNC(=N)N)NS(=O)(=O)c1ccc(C(C)(C)C)cc1)[C@@H](C)O)C(=O)N[C@@H](Cc1ccc(O)cc1)C(=O)N[C@@H](C)C(=O)N[C@@H](CCC(N)=O)C(=O)N[C@H](C(=O)N[C@@H](CCC(N)=O)C(=O)N[C@@H](CCCCN)C(=O)NCC(=O)N[C@@H](CC(=O)O)C(=O)N[C@@H](Cc1ccccc1)C(=O)N[C@@H](CCC(=O)O)C(=O)N[C@@H](CCC(=O)O)C(=O)N[C@H](C(=O)N1CCC[C@H]1C(=O)N[C@@H](CCC(=O)O)C(=O)N[C@@H](CCC(=O)O)C(=O)N[C@@H](Cc1ccc(O)cc1)C(=O)N[C@@H](CC(C)C)C(=O)N[C@@H](CCC(N)=O)C(=O)O)[C@@H](C)CC)C(C)C` [P3291], for which the “Effect of SAP-SH2 on thrombin inhibition” value (25 nM inhibitor, 5 and 10 μM SAP-SH2, 25° C.) is “reversal of thrombin inhibition”. Moreover, the midpoint of inhibition (IC50, nM (25° C.), 25° C.), the IC50, lay at 7 ± 1 nM. Take `CC[C@H](C)[C@H](NC(=O)[C@H](CCC(=O)O)NC(=O)[C@H](CCC(=O)O)NC(=O)[C@H](Cc1ccccc1)NC(=O)[C@H](CC(=O)O)NC(=O)CNC(=O)[C@H](CC(=O)O)NC(=O)[C@H](CC(N)=O)NC(=O)[C@H](Cc1c[nH]cn1)NC(=O)[C@H](CO)NC(=O)[C@H](CCC(N)=O)NC(=O)[C@@H]1CCCN1C(=O)[C@H](CCCCN)NC(=O)[C@@H]1CCCN1C(=O)[C@@H](NC(=O)CNC(=O)[C@H](CCC(=O)O)NC(=O)CNC(=O)[C@H](CC(=O)O)NC(=O)[C@@H](NC(=O)[C@H](Cc1ccccc1)NC(=O)[C@H](CCCNC(=N)N)NC(=O)[C@@H](N)C(C)C)[C@@H](C)O)[C@@H](C)O)C(=O)N1CCC[C@H]1C(=O)N[C@@H](CCC(=O)O)C(=O)N[C@@H](CCC(=O)O)C(=O)N[C@@H](Cc1ccc(O)cc1)C(=O)N[C@@H](CC(C)C)C(=O)N[C@@H](CCC(N)=O)C(=O)O` [mini-hirudin 1]: half-maximal inhibition (IC50, nM (37° C.), 37° C.) (IC50) required 33 ± 3 nM. Still for that read-out and setting: to `CC[C@H](C)[C@H](N)C(=O)N[C@@H](CCCNC(=N)N)C(=O)N[C@@H](Cc1ccccc1)C(=O)N[C@H](C(=O)N[C@@H](CC(=O)O)C(=O)NCC(=O)N[C@@H](CCC(=O)O)C(=O)NCC(=O)N[C@H](C(=O)N1CCC[C@H]1C(=O)N[C@@H](CC(N)=O)C(=O)N1CCC[C@H]1C(=O)N[C@@H](CCC(=O)O)C(=O)N[C@@H](CO)C(=O)N[C@@H](Cc1c[nH]cn1)C(=O)N[C@@H](CC(N)=O)C(=O)N[C@@H](CC(N)=O)C(=O)NCC(=O)N[C@@H](CC(=O)O)C(=O)N[C@@H](Cc1ccccc1)C(=O)N[C@@H](CCC(=O)O)C(=O)N[C@@H](CCC(=O)O)C(=O)N[C@H](C(=O)N1CCC[C@H]1C(=O)N[C@@H](CCC(=O)O)C(=O)N[C@@H](CCC(=O)O)C(=O)N[C@@H](Cc1ccc(O)cc1)C(=O)N[C@@H](CC(C)C)C(=O)N[C@@H](CCC(N)=O)C(=O)O)[C@@H](C)CC)[C@@H](C)O)[C@@H](C)O` [mini-hirudin 2] belongs 14 ± 1 nM. Same read-out and setting: the figure for `CC[C@H](C)[C@H](N)C(=O)N[C@@H](CCCNC(=N)N)C(=O)N[C@@H](Cc1ccccc1)C(=O)N[C@H](C(=O)N[C@@H](CC(=O)O)C(=O)NCC(=O)N[C@@H](C)C(=O)N[C@@H](CCCCN)C(=O)N[C@H](C(=O)N[C@H](C(=O)N[C@@H](CCSC)C(=O)N[C@H](C(=O)N[C@@H](CS)C(=O)N[C@@H](CO)C(=O)N[C@@H](C)C(=O)N[C@@H](CO)C(=O)NCC(=O)N[C@@H](CC(=O)O)C(=O)N[C@@H](Cc1ccccc1)C(=O)N[C@@H](CCC(=O)O)C(=O)N[C@@H](CCC(=O)O)C(=O)N[C@H](C(=O)N1CCC[C@H]1C(=O)N[C@@H](CCC(=O)O)C(=O)N[C@@H](CCC(=O)O)C(=O)N[C@@H](Cc1ccc(O)cc1)C(=O)N[C@@H](CC(C)C)C(=O)N[C@@H](CCC(N)=O)C(=O)O)[C@@H](C)CC)[C@@H](C)O)[C@@H](C)O)C(C)C)[C@@H](C)O` [mini-hirudin 3] is 10 ± 1 nM.
